Assay results reported in patent US20080248008A1, “Inhibitors of Protein Kinase a Anchoring” (priority 2004, published 2008).

Columns and labels:
Human RIα = target: T1, Human RIα (Homo sapiens, UniProt P10644); experiment: R-overlay with human RIα; type: binding; conditions: equal amounts of human or bovine RIα, n=3
T1 construct: made in house; host or cells: E. coli BL21 (B121 [sic])
Procedure: R-overlay. R-overlays were conducted as described, using ^32P-labeled recombinant murine RII (Hausken, Z. E., et al., 1998 in Protein Targeting Protocols, ed. Clegg, R. A. (Humana, Totowa, N.J.), Vol. 88, pp. 47-64) or recombinant bovine RI (A98S) or by cold RI-overlay where bound RIα was detected by Western blot. Cold RI-overlay was performed by incubating the membranes with 250 nM RI overnight at 4° C., then the membranes were washed five times in TBST for 5 min. Detection of RI was performed using an anti-RI rabbit polyclonal antibody (Santa Cruz) at a concentration of 0.2 μg/μl for 1 hour at 4° C. Then the membranes were washed five times for 5 minutes in PBS followed by incubation with HRP-conjugated anti-rabbit IgGs (1:5000) for 1 hour at 4° C. The membranes were washed in PBS as described above before detection by Supersignal West Dura Extended Duration Substrate (Pierce).
The MEME3 sequence was synthesized on a membrane and RIα binding analysed by R-overlay using equal amounts of either human or bovine RIα (FIG. 3C).

PKA-C subunit = experiment: Coimmunoprecipitation of PKA kinase activity from HEK293 cells; type: biochemical, human
Procedure: Coimmunoprecipitation of PKA kinase activity. Cells at 50-80% confluency were transfected by using FuGENE (Roche Biochemicals). Five micrograms of plasmid DNA (GFP-AKAP-is-V5His, GFP-Scrambled-AKAP-is-V5His, GFP-MEME3-V5H is-and GFP-Scrambled-MEME3-V5His) was transfected into HEK293-cells. Cells were lysed 24 h later in 20 mM Hepes, pH 7.5/150 mM NaCl/1 mM EDTA/1% Triton X-100. MEME3 and the other peptides was immunoprecipitated. PKA kinase assays were performed by the filter paper assay (Corbin and Reimann, 1974, Methods Enzymol., 38, 287-294). The protein kinase inhibitor (PKI) residues 5-24 peptide was used as a specific inhibitor of the kinase (Scott et al., 1986, PNAS, 83, 1613-1616).
The specific activity (pmol/min per IP) of PKA-C subunit from HEK293 cells co-precipitating with chimeric MEME3 fusion protein was measured by a phosphotransferase assay using Kemptide as a substrate (Kemp et al., J. Biol. Chem. 252, p 4888-4894, 1977; Roskoski, R. Methods Enzymol. 99, p 3-6, 1983) in the absence and presence of cAMP (FIG. 12). Specific PKA activity was abrogated when PKI (5-24) peptide (10 μM) was added to the reaction mixture. The MEME3 fusion protein coprecipitated 17-fold more PKA-C activity than the RIIα-selective peptide, AKAP-is (IS) (Alto et al., 2003, supra). […] The accumulated data from three independent experiments are shown.

PKA type I = target: T2, PKA type I (Mus musculus, UniProt Q9DBC7); experiment: Solid phase immobilization from Y-1 adrenal cell lysate, PKA type I; type: binding; conditions: overnight
T2 construct: host or cells: mouse Y-1 adrenocortical cells (lysate)
Procedure: (§1) Solid phase assay and cell lysate. 5×10^6 Y1 cells or 20×10^6 Jurkat T cells lysed in 150 mM NaCl, 1% NP-40, 0.5% deoxycholate, 0.1% SDS and 50 mM Tris HCl (7.8) were incubated overnight at 4° C. with MEME3 and SM3 peptides synthesized on membranes (Autospot, Intavis, AG). The membranes were washed two times for 10 minutes in lysis buffer and thereafter in high salt lysis buffer (1 M NaCl) before boiling in SDS-PAGE loading buffer.
A solid phase immobilization assay (schematic illustration in FIG. 24, left panel) was used to analyse endogenous PKA binding to MEME3. MEME3 and SM3 peptides synthesized in triplicate on membranes were incubated overnight in lysate from Y-1 adrenal cells. Thereafter bound proteins were eluted, subjected to 10% PAGE and analysed by immunoblotting using specific antibodies against PKA-RIα, PKA-C and PKA-RIIα subunits.

[1] = Circular dichroism, α helical content; type: physicochemical
Procedure: Circular Dichroism. CD spectra were recorded by using a Jasco J-810 spectropolarimeter (Jasco). Measurements were performed at 25° C. by using a quartz cuvette (Starna) with a path length of 0.1 cm. All the measurements were performed with a peptide concentration of 0.10 mg/ml in PBS containing 0-75% trifluoroethanol (TFE). Samples were scanned five times at 20 nm/min with a bandwidth of 1 nm and a response time of 1 s, over the wavelength range 190 to 260 nm. The data were averaged, and the spectrum of a peptide-free control sample was subtracted. The α helical content was calculated after smoothing (means-movement method; convolution width, 13) from ellipticity data, using the neural network program CDNN version 2.1. All measurements were conducted three times.

PKA-RIIα = PKA-RIIα (Homo sapiens, UniProt P13861); experiment: Solid phase pull down from T cell lysate, PKA-RIIα; type: binding; design: endogenous in cells; host or cells: Jurkat T cells (lysate); conditions: overnight
Procedure: as §1
Solid phase pull down (see schematic illustration in FIG. 24A, left panel) was performed to analyse endogenous PKA binding to MEME3. MEME3 and SM3 peptides synthesized in triplicate on membranes were incubated overnight in T cell lysate, thereafter bound proteins were eluted, subjected to 10% PAGE electrophoresis and analysed by immunoblotting (FIG. 11). The presence of PKA subunits was assessed by immunoblotting using specific antibodies against PKA-RIα and PKA-RIIα subunits.

Sequence of PKA-RIIα (P13861 whole entry): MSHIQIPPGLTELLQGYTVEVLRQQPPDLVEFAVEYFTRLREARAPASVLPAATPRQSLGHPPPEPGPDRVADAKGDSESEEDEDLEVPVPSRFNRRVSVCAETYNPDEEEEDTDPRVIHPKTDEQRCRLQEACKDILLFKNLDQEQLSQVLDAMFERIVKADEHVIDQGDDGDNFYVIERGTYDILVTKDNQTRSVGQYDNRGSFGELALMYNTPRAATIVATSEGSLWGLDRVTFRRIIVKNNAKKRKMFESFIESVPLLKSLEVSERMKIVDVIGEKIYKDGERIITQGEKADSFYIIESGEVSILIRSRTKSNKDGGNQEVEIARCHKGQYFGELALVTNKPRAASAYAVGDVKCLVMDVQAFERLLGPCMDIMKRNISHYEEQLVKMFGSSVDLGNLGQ
T1 sequence (P10644 whole entry): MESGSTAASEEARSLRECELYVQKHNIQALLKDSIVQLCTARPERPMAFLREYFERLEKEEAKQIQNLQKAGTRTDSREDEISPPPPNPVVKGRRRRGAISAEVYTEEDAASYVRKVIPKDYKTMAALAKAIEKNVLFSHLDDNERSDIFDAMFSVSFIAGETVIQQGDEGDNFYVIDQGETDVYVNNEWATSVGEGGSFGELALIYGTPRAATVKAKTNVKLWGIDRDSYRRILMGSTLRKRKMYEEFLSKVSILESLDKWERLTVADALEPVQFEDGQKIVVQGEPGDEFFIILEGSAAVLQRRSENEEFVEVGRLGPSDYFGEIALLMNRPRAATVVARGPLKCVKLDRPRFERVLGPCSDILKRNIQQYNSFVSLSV

| Compound | human RIα binding (R-overlay) (Human RIα) | coprecipitated PKA-C activity relative to AKAP-is (IS) (PKA-C subunit; Kemptide substrate, three experiments) [fold] | immobilization of PKA type I (PKA-RIα, PKA-C) (PKA type I) | helicity ([1]; 50% TFE) [%] | helicity ([1]; absence of TFE) [%] | immobilization of PKA-RIIα (PKA-RIIα) | coprecipitated kinase activity (PKA-C subunit) |
| --- | --- | --- | --- | --- | --- | --- | --- |
| CC[C@H](C)[C@H](NC(=O)[C@H](CCC(N)=O)NC(=O)[C@H](CC(=O)O)NC(=O)[C@H](C)NC(=O)[C@H](CC(C)C)NC(=O)[C@H](CCC(N)=O)NC(=O)[C@H](CC(N)=O)NC(=O)[C@H](C)NC(=O)[C@H](Cc1ccc(O)cc1)NC(=O)[C@H](CCC(N)=O)NC(=O)[C@H](CCC(=O)O)NC(=O)[C@@H](N)CC(C)C)C(=O)N[C@H](C(=O)N[C@@H](CCCCN)C(=O)N[C@@H](CCC(=O)O)C(=O)N[C@@H](C)C(=O)N[C@H](C(=O)N[C@@H](CCC(=O)O)C(=O)N[C@@H](CCCCNC(=O)c1ccc2c(c1)C(=O)OC21c2ccc(O)cc2Oc2cc(O)ccc21)C(N)=O)[C@@H](C)O)[C@@H](C)CC [MEME3] | bound with similar affinity to MEME3 as did bovine RIα | 17 | Only PKA type I was immobilized | 49 | 12 | not PKA-RIIα |  |
| IEKELAQQYQNADAITLE [SM3, scrambled MEME3 negative control peptide, reference compound] | no RIα binding at all |  | Neither PKA-RIα, PKA-C nor PKA-RIIα were immobilized | 29 | 7 | Neither PKA-RIα nor PKA-RIIα bound | No kinase activity was detected |
| LEQYANQLADQIIKEATERRRRRRRRRrr [MEME3-Arg11] |  |  |  | 39 |  |  |  |
